Measured values published in ChEMBL document CHEMBL3856231 (J Med Chem, 2016).

What was measured:
[1] = Oral bioavailability in Sprague-Dawley rat at 5 mg/kg by LC/MS/MS analysis; assay type: ADME, organism-based; details: in vivo
[2] = Drug level in tumor of FAK expressing human CWR22 cells xenografted Nu/Nu mouse at 55 mg/kg, po administered as single dose measured at 6 hrs by LC-MS/MS analysis; assay type: ADME, organism-based, Neoplasm; details: read-out: Drug uptake
[3] = Drug level in plasma of NPM-ALK expressing human SUP-M2 cells xenografted mouse at 30 mg/kg, po administered as single dose measured at 2 hrs by LC-MS/MS analysis; assay type: ADME, organism-based
[4] = Half life in CD-1 mouse at 1 mg/kg, iv by LC/MS/MS analysis; assay type: ADME, organism-based; details: in vivo
[5] = Clearance in Sprague-Dawley rat at 1 mg/kg, iv by LC/MS/MS analysis; assay type: ADME, organism-based; details: in vivo
[6] = Drug level in plasma of NPM-ALK expressing human SUP-M2 cells xenografted mouse at 30 mg/kg, po administered as single dose measured at 12 hrs by LC-MS/MS analysis; assay type: ADME, organism-based
[7] = Half life in cynomolgus monkey liver microsomes by LC/MS/MS analysis; assay type: ADME, Macaca fascicularis
[8] = Half life in CD-1 mouse liver microsomes by LC/MS/MS analysis; assay type: ADME

With `CNC(=O)c1ccccc1Nc1nc(Nc2ccc3c(c2OC)CCC[C@H](N2CCN(CCO)CC2)C3)ncc1Cl` [CEP-37440] the bioavailability [1] was 42%, the concentration at 6 h [2] was 8680 ng/g and the concentration at 2 h [3] was 4740 ng/mL. It also gave a half-life [4] of 180 min, a clearance [5] of 3 to 4 mL/min/kg and a concentration at 12 h [6] of 4030 ng/mL. The half-life [7] was 21 min and the half-life [8] was 40 min.
